Source: US8404683B2, “Inhibitors of the interaction between MDM2 and P53” (Janssen Pharmaceutical N.V., priority 2004, dated 2013)
Counter-ions that a name gives are not always drawn.

Key:
[1] = test system: U87MG cells; test: Proliferation assay (MTT-based) on U87MG tumour cells; conditions: Homo sapiens, U-87 MG, 96 h, 4 days of incubation, negative log value of the IC50-value, read-out: cell proliferation pIC50 (converted)
Method in brief: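 Human glioblastoma U87MG cells (wild-type p53) exposed to compound for 4 days at ≤0.1% DMSO, then MTT added for 2 h at 37 °C and absorbance read at 540 nm. Growth expressed as % of untreated control; IC50 by probit analysis, reported as pIC50.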

melting point [°C]	IC50 [1] [µM]	SMILES
170	–	c1ccc2c(Nc3ccc(NCCc4c[nH]c5ccccc45)cc3)ccnc2c1 (as salt: HCl) [Compound 1]
160	–	c1cncc(Nc2ccc(NCCc3c[nH]c4ccccc34)cc2)c1 (as salt: HCl) [Compound 6]
150	–	CCOc1cc(Nc2ccncc2)ccc1NCCc1c[nH]c2ccccc12 (as salt: hydrochloric acid salt) [Compound 2]
130	–	c1cncc(CNc2ccc(NCCc3c[nH]c4ccccc34)cc2)c1 (as salt: hydrochloric acid salt) [Compound 121]
132	–	c1ccc2c(CCNc3ccc(NCc4ccncc4)cc3)c[nH]c2c1 (as salt: salt) [Compound 9]
238	5.01	O=c1cc(Nc2ccc(NCCc3c[nH]c4ccccc34)cc2)c2ccccc2[nH]1 [Compound 3]
145	2	COc1ccc2c(CNc3ccc(Nc4ccncc4)cc3)c[nH]c2c1 [Compound 7]
208	5.01	O=C(CCc1c[nH]c2ccccc12)Nc1ccc(Nc2ccncc2)cc1 [Compound 8]
122	5.01	c1ccc2c(CCNc3ccc(CNc4ccncc4)cc3)c[nH]c2c1 [Compound 11]
210	> 10	c1ccc2c(CCNc3ccc(Nc4ccnc(-c5nnn[nH]5)c4)cc3)c[nH]c2c1 [Compound 87]
170 to 174	–	c1ccc(-c2noc(-c3cc(Nc4ccc(NCCc5c[nH]c6ccccc56)cc4)ccn3)n2)cc1 [Compound 107]
159 to 161	–	c1ccc(Cc2noc(-c3cc(Nc4ccc(NCCc5c[nH]c6ccccc56)cc4)ccn3)n2)cc1 [Compound 108]
104	0.0794	OC1CCCc2c(Nc3ccc(NCCc4c[nH]c5ccccc45)cc3)ccnc21 (stereo not shown) [Compound 111]
211	> 10	c1ccc2c(CCNc3ccc(Nc4ncnc5[nH]ccc45)cc3)c[nH]c2c1 [Compound 117]
–	1.58	CCN(CCCCO)C(=O)C(Cc1c[nH]c2ccccc12)Nc1ccc(Nc2ccncc2)cc1 (stereo not shown) [Compound 212]
–	> 10	CN(CCO)C(=O)C(Cc1c[nH]c2ccccc12)Nc1ccc(Nc2ccncc2)cc1 (stereo not shown) [Compound 213]
–	3.16	COCCN(C)C(=O)C(Cc1c[nH]c2ccccc12)Nc1ccc(Nc2ccncc2)cc1 (stereo not shown) [Compound 215]
–	3.98	O=C(C(Cc1c[nH]c2ccccc12)Nc1ccc(Nc2ccncc2)cc1)N1CCC(CO)CC1 (stereo not shown) [Compound 224]
–	7.94	c1ccc2c(CCNc3ccc(N(c4ccncc4)c4ccncc4)cc3)c[nH]c2c1 [Compound 228]

The next lines start with the compound.

SMILES	melting point [°C]	IC50 [1] [µM]
Cn1cc(CCN(c2ccncc2)c2ccc(Nc3ccncc3)cc2)c2ccccc21 (as salt: hydrochloric acid salt) [Compound 10]	> 250	–
CCOc1cc(Nc2ccnc3c2CCC3O)ccc1NCCc1c[nH]c2cc(OC)ccc12 (stereo not shown) [Compound 112]	194	0.0316
N#Cc1ccc2[nH]cc(C(O)C(=O)Nc3ccc(Nc4ccncc4)cc3)c2c1 (stereo not shown) [Compound 113]	154	> 10
O=C(C(Cc1c[nH]c2ccccc12)Nc1ccc(Nc2ccncc2)cc1)N(CCO)Cc1ccccc1 (stereo not shown) [Compound 214]	–	> 10
O=C(C(Cc1c[nH]c2ccccc12)Nc1ccc(Nc2ccncc2)cc1)N1CCCCC1CCCO (stereo not shown) [Compound 216]	–	2.51
O=C(C(Cc1c[nH]c2ccccc12)Nc1ccc(Nc2ccncc2)cc1)N1CCC(CCCO)CC1 (stereo not shown) [Compound 217]	–	3.98
O=C(C(Cc1c[nH]c2ccccc12)Nc1ccc(Nc2ccncc2)cc1)N1CCCC(CO)C1 (stereo not shown) [Compound 218]	–	> 10
CC1(CO)CCCN(C(=O)C(Cc2c[nH]c3ccccc23)Nc2ccc(Nc3ccncc3)cc2)C1 (stereo not shown) [Compound 219]	–	3.98
CC(C)(CO)C1CCN(C(=O)C(Cc2c[nH]c3ccccc23)Nc2ccc(Nc3ccncc3)cc2)CC1 (stereo not shown) [Compound 220]	–	6.31
CC(CO)(CO)C1CCN(C(=O)C(Cc2c[nH]c3ccccc23)Nc2ccc(Nc3ccncc3)cc2)CC1 (stereo not shown) [Compound 221]	–	3.98
COCC1(O)CCN(C(=O)C(Cc2c[nH]c3ccccc23)Nc2ccc(Nc3ccncc3)cc2)CC1 (stereo not shown) [Compound 222]	–	3.98
COCC(O)C1CCN(C(=O)C(Cc2c[nH]c3ccccc23)Nc2ccc(Nc3ccncc3)cc2)CC1 (stereo not shown) [Compound 223]	–	0.794
CC(O)C1CCN(C(=O)C(Cc2c[nH]c3ccccc23)Nc2ccc(Nc3ccncc3)cc2)CC1 (stereo not shown) [Compound 225]	–	0.158
CC(C)(C)OC(=O)N(CCc1cn(C(=O)OC(C)(C)C)c2ccccc12)c1ccc(Nc2ccncc2)cc1 [Compound 226]	–	3.16
CC(C)(C)OC(=O)N(CCc1cn(C(=O)OC(C)(C)C)c2ccccc12)c1ccc(N(c2ccncc2)c2ccncc2)cc1 [Compound 227]	–	7.94
